In experiment [1] the target is T1, HiBit-BRG1 fusion protein (Homo sapiens, UniProt P51532).
T1 construct: expressed in transfected cells
Description: HiBiT-BRG1 cell-based degradation assay (Nano-Glo HiBiT Lytic Detection, 24 h). The following applies: HeLa cells expressing HiBit-BRG1 and LgBit; for DC50: read-out: BRG1 HiBit Degradation IC50; for Dmax: HeLa, top dose 30 μM, read-out: BRG1 HiBit Degradation Maximum measured. A digest of the protocol: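 Stable HeLa line expressing HiBiT-BRG1 and LgBiT, seeded at 5000 cells/well; luminescence read after lytic Nano-Glo HiBiT reagent and 10 min shaking at RT. % degradation normalised between DMSO (high control) and 2 μM reference BRM/BRG1 degrader (low control).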
(With HiBiT, luminescence reflects the tagged protein that the partner subunit can reach.)

Another experiment has as its target T2, HiBit-BRM fusion protein (Homo sapiens, UniProt P51531).
T2 construct: expressed in transfected cells
The experiment can be described thus: HiBiT-BRM cell-based degradation assay (Nano-Glo HiBiT Lytic Detection, 24 h). To be noted: HeLa cells expressing HiBiT-BRM; for DC50: read-out: BRM HiBit Degradation IC50; for BRM HiBit Degradation Maximum measured: top dose 30 μM. Summed up: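 HeLa cells stably expressing HiBiT-BRM were treated for 24 h with compounds (10-point 3-fold dilutions, 30 μM final top dose, in duplicate). HiBiT was detected by lytic LgBiT complementation luminescence. % degradation was normalized to DMSO (high control) and 2 μM of a reference BRM/BRG1 degrader (low control).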

T1 sequence (P51532 whole entry, the tested form may be a part): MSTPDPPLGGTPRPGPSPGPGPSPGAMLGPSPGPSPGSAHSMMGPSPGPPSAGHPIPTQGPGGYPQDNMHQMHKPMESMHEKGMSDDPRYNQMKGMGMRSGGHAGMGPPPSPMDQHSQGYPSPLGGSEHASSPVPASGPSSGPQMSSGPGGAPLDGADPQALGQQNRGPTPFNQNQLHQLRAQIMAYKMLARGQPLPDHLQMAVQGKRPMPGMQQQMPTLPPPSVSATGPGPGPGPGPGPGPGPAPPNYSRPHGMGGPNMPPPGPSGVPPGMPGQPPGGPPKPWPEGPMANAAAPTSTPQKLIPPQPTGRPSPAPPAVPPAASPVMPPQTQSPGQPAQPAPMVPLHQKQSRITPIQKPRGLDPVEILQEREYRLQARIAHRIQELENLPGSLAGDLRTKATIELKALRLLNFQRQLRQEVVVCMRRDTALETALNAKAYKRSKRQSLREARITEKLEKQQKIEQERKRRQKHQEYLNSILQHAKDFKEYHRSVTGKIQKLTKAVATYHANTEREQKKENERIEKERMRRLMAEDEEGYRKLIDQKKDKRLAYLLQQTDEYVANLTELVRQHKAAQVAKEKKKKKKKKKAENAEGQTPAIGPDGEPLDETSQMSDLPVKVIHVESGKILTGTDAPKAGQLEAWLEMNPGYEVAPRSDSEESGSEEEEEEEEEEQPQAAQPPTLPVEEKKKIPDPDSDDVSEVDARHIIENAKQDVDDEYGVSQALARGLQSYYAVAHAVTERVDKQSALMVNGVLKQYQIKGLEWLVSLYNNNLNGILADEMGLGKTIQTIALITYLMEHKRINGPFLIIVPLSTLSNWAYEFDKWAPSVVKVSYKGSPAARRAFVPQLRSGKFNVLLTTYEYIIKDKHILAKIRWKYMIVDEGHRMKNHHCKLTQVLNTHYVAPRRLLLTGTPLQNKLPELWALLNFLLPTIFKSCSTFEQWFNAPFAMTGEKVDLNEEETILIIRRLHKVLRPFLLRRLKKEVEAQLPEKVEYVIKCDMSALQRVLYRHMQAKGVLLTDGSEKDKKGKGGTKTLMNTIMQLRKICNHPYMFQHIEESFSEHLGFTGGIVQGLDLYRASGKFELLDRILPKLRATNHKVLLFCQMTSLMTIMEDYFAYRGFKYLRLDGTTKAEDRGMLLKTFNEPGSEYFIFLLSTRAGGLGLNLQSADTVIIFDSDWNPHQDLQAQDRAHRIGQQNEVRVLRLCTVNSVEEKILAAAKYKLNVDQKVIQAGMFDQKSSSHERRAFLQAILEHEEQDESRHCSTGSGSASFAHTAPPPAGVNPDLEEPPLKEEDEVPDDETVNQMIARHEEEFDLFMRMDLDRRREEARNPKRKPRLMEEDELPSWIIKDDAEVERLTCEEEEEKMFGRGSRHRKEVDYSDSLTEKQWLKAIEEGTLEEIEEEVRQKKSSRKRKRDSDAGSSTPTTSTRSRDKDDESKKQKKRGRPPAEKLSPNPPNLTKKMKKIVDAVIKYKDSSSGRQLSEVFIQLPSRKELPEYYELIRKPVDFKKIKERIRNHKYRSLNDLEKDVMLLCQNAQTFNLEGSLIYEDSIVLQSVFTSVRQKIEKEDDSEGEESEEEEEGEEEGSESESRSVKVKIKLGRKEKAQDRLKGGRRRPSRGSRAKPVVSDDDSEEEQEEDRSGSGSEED
T2 sequence (P51531 whole entry, the tested form may be a part): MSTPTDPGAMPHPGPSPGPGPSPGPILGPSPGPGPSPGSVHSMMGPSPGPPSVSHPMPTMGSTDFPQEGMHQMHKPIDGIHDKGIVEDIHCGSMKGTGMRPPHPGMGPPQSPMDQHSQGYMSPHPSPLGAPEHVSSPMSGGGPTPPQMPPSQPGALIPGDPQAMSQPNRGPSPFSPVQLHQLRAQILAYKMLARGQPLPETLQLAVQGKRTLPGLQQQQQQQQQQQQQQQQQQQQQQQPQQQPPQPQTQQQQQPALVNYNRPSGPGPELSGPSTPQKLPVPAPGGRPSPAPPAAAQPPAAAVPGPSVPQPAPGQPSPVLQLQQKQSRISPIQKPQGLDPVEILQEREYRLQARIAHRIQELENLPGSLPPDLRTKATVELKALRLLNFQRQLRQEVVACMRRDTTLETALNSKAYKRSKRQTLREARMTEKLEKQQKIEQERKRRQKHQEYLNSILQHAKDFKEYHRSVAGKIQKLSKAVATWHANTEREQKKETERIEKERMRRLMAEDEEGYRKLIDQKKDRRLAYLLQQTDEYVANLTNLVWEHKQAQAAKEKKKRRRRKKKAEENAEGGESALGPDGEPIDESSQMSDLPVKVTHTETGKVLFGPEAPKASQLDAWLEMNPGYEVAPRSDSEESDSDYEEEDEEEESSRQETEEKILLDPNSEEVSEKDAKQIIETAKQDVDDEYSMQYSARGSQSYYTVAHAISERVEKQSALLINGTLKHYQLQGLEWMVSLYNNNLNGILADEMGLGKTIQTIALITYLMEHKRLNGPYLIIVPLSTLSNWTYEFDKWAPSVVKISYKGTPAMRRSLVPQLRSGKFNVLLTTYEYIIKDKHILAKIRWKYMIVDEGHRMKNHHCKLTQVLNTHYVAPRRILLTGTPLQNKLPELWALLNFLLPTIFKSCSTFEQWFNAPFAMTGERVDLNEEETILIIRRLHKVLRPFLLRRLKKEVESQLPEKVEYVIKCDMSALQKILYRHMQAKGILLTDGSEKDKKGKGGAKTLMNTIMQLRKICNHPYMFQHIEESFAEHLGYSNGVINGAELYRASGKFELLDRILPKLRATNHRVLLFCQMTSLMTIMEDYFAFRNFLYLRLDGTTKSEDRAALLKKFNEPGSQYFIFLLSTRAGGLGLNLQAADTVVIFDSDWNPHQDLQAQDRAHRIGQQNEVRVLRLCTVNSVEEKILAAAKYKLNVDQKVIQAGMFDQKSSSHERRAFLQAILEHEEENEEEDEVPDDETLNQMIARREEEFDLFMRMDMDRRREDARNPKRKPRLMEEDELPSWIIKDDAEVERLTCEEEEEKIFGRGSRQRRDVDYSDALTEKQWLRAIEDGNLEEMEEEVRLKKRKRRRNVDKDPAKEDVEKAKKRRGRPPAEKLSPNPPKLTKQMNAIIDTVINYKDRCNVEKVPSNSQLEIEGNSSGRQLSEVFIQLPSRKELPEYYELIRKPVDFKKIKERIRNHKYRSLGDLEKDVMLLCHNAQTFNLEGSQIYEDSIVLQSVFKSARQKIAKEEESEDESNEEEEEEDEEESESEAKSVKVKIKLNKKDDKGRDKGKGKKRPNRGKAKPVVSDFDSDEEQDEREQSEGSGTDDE

Turning to `CS(=O)(=O)n1ccc(C(=O)N[C@@H](CCOCCCC(=O)NCCCC#Cc2ccc3c(c2)C(=O)N(C2CCC(=O)NC2=O)C3=O)C(=O)Nc2nc(-c3ccccc3)cs2)c1` (stereo partly drawn) [Compound 271, (2S)-4-[3-([5-[2-(2,6-dioxopiperidin-3-yl)-1,3-dioxoisoindol-5-yl]pent-4-yn-1-yl]carbamoyl)propoxy]-2-[(1-methanesulfonylpyrrol-3-yl)formamido]-N-(4-phenyl-1,3-thiazol-2-yl)butanamide], in experiment [1], the DC50 is above 10 µM and the Dmax is below 50%. Also, at HiBit-BRM fusion protein, the DC50 was above 10 µM and the “BRM HiBit Degradation Maximum measured” value is “C (‘C’ = Maximum degradation <50%)”.
`CS(=O)(=O)n1ccc(C(=O)N[C@@H](CCOCCCC(=O)NCCC2CCN(c3ccc4c(c3)C(=O)N(C3CCC(=O)NC3=O)C4=O)CC2)C(=O)Nc2nc(-c3ccccc3)cs2)c1` (stereo partly drawn) [Compound 277, (2S)-4-[3-[(2-[1-[2-(2,6-dioxopiperidin-3-yl)-1,3-dioxoisoindol-5-yl]piperidin-4-yl]ethyl)carbamoyl]propoxy]-2-[(1-methanesulfonylpyrrol-3-yl)formamido]-N-(4-phenyl-1,3-thiazol-2-yl)butanamide]: in experiment [1], the DC50 was above 10 µM and the Dmax is below 50%. On HiBit-BRM fusion protein, the DC50 is above 10 µM and the “BRM HiBit Degradation Maximum measured” value is listed as “C (‘C’ = Maximum degradation <50%)”.
For the compound `CS(=O)(=O)n1ccc(C(=O)N[C@@H](COCc2ccc(C(=O)NCCOC3CN(c4ccc5c(c4)C(=O)N(C4CCC(=O)NC4=O)C5=O)C3)cc2)C(=O)Nc2nc(-c3ccccc3)cs2)c1` (stereo partly drawn) [Compound 246, N-[2-([1-[2-(2,6-dioxopiperidin-3-yl)-1,3-dioxoisoindol-5-yl]azetidin-3-yl]oxy)ethyl]-4-[[(2S)-2-[(1-methanesulfonylpyrrol-3-yl)formamido]-2-[(4-phenyl-1,3-thiazol-2-yl)carbamoyl]ethoxy]methyl]benzamide], in experiment [1], the DC50 fell in the range of 0.1 to 1 µM and the Dmax was above 75%. Moreover, on HiBit-BRM fusion protein, the DC50 was in the range of 0.1 to 1 µM; the “BRM HiBit Degradation Maximum measured” value is “B (‘B’ = Maximum degradation ≥50% and ≤75%)”.
Take `CN(CCNC(=O)C1(c2cc(-c3cccc(-c4csc(NC(=O)CNC(=O)c5ccn(S(C)(=O)=O)c5)n4)c3)ccn2)CC1)CCNc1cccc2c1C(=O)N(C1CCC(=O)NC1=O)C2=O` (centres unmarked) [Compound 97, N-[2-[[4-[3-[2-[1-[2-[2-[[2-(2,6-dioxo-3-piperidyl)-1,3-dioxoisoindolin-4-yl]amino]ethyl-methyl-amino]ethylcarbamoyl]cyclopropyl]-4-pyridyl]phenyl]thiazol-2-yl]amino]-2-oxo-ethyl]-1-methylsulfonyl-pyrrole-3-carboxamide]: in experiment [1], the DC50 was above 10 µM and the Dmax is below 50%. Moreover, at HiBit-BRM fusion protein, the DC50 is above 10 µM and the “BRM HiBit Degradation Maximum measured” value was “C (‘C’ = Maximum degradation <50%)”.
Take `CS(=O)(=O)n1ccc(C(=O)N[C@@H](CCOCCCC(=O)NCCCCCCCCNc2cccc3c2C(=O)N(C2CCC(=O)NC2=O)C3=O)C(=O)Nc2nc(-c3ccccc3)cs2)c1` (stereo partly drawn) [Compound 281, (2S)-4-[3-[(8-[[2-(2,6-dioxopiperidin-3-yl)-1,3-dioxoisoindol-4-yl]amino]octyl)carbamoyl]propoxy]-2-[(1-methanesulfonylpyrrol-3-yl)formamido]-N-(4-phenyl-1,3-thiazol-2-yl)butanamide]: in experiment [1], the DC50 was above 10 µM and the Dmax is below 50%. Further, on HiBit-BRM fusion protein, the DC50 is above 10 µM and the “BRM HiBit Degradation Maximum measured” value is “C (‘C’ = Maximum degradation <50%)”.

The values are drawn from patent US12662479B2 (Foghorn Therapeutics Inc., priority 2020, dated 2026).
